# Like-named read-outs stand apart in the source and are kept apart here.
# What was measured:
# [1] = system: C. difficile 630 (CD630, ATCC BAA-1382); test: MIC by broth microdilution against C. difficile 630; format: cell-based, Clostridium difficile; conditions: 20-24 h, 37° C.; for MIC: Clostridioides difficile, ATCCBAA1382
# [2] = system: C. difficile 4118 (CD4118, ATCC BAA-1870, BI/NAP1/027); test: MIC by broth microdilution against C. difficile 4118; format: cell-based, Clostridium difficile; conditions: for MIC: Clostridioides difficile, ATCCBAA1870
# [3] = system: C. difficile strains 630 (CD630) and 4118 (CD4118); test: MIC / growth inhibition against C. difficile, covering both strains; format: cell-based, Clostridium difficile; conditions: for MIC: Clostridioides difficile, read-out: MIC against C. difficile
# B. subtilis ATCC 6051 = test: MIC against aerobic bacteria; format: cell-based, Bacillus subtilis
# S. aureus RN4220 = test: MIC against aerobic bacteria; format: cell-based; conditions: for MIC: Staphylococcus aureus
# S. epidermidis 1457 = test: MIC against aerobic bacteria; format: cell-based
# A. baumannii M2 = test: MIC against aerobic bacteria; format: cell-based
# P. aeruginosa PAO1 = test: MIC against aerobic bacteria; format: cell-based, Pseudomonas aeruginosa
# C. sporogenes ATCC 15579 = test: microbe, parasite or virus in culture; format: cell-based, Clostridium sporogenes; conditions: for MIC: Clostridium sporogenes, ATCC15579, read-out: MIC C. sporogenes ATCC 15579
# [4] = system: C. clostridioforme ATCC 25537; test: MIC against anaerobic bacteria; format: cell-based, Clostridium clostridioforme
# [5] = system: B. thetaiotaomicron ATCC 29148; test: microbe, parasite or virus in culture; format: cell-based; conditions: for MIC: Bacteroides thetaiotaomicron, ATCC29148, read-out: MIC B. thetaiotaomicron ATCC 29148
# P. distasonis ATCC 8503 = test: MIC against anaerobic bacteria; format: cell-based, Parabacteroides distasonis
# P. nigrescens ATCC 33563 = test: MIC against anaerobic bacteria; format: cell-based, Prevotella nigrescens
# [6] = system: Clostridium difficile strain 4118; test: Minimum bactericidal concentration (MBC), logarithmic- and stationary-phase cells; format: cell-based; conditions: 3-log reduction of inoculum; for MBC: Clostridioides difficile
# Experimental: The MBClog values of the protonophores were determined to be 0.25-2 μg/mL (˜4 to 8-fold greater than their respective MIC values).
# Clostridium difficile strain 4118 was grown to OD600˜0.4-0.5 (logarithmic phase) or for 24 h (stationary phase), and thereafter added to two-fold serial dilutions of test compounds. Cultures were incubated for 20-24 h at 37° C., and then viable counts were enumerated on BHIS agar plates. […] MBC measurements were performed in duplicate.
# [7] = system: panel of aerobic and anaerobic organisms; format: cell-based
# liver carcinoma HepG2 = test: In vitro cytotoxicity MTS assay, HepG2; conditions: 0.125 μg/mL; 16 h
# [8] = system: embryonic kidney HEK 293T/17; test: In vitro cytotoxicity MTS assay, HEK 293T/17; conditions: 0.125 μg/mL; 16 h
# [9] = Table 1, strain 4118, 20-24 h, 37° C.
# [10] = one statement covering CD630 and CD4118
# [11] = Table 1, strain 4118, 20-24 h, 37° C., read-out: MIC C. difficile 4118
# [12] = RN4220, aerobic, read-out: MIC S. aureus RN4220
# [13] = stationary-phase cells of strain 4118
smiles,measurement,setting,value
COc1c(I)cc(I)cc1C(=O)Nc1ccc2ccccc2c1 [Compound 6b],MIC C. difficile 630,"[1]; Table 1, strain 630",>32 µg/mL
same,MIC C. difficile 4118,[2]; [9],>32 µg/mL
same,growth inhibitory activity against CD630 and CD4118 (in words),[3],inactive
O=C(Nc1ccc2ccccc2c1)c1cc(I)cc(I)c1 [Compound 6c],MIC C. difficile 630,"[1]; Table 1, strain 630",>32 µg/mL
same,MIC C. difficile 4118,[2]; [9],>32 µg/mL
same,growth inhibitory activity against CD630 and CD4118 (in words),[3],inactive
O=C(Nc1ccc(-c2ccccc2)cc1)c1cc(I)cc(I)c1O [Compound 7a],MIC C. difficile 630,"[1]; Table 1, strain 630",0.5 µg/mL
same,MIC C. difficile 4118,[2]; [9],1 µg/mL
O=C(Nc1ccc(Cl)cc1)c1cc(I)cc(I)c1O [Compound 7b],MIC C. difficile 630,"[1]; Table 1, strain 630",0.25 µg/mL
same,MIC C. difficile 4118,[2]; [9],0.5 µg/mL
same,MIC B. subtilis ATCC 6051,B. subtilis ATCC 6051; aerobic,0.06 µg/mL
same,MIC S. aureus RN4220,S. aureus RN4220; aerobic,0.06 µg/mL
same,MIC S. epidermidis 1457,S. epidermidis 1457; aerobic,≤0.03 µg/mL
same,MIC A. baumannii M2,A. baumannii M2; aerobic,32 µg/mL
same,MIC P. aeruginosa PAO1,P. aeruginosa PAO1; aerobic,>32 µg/mL
same,MIC C. sporogenes ATCC 15579,C. sporogenes ATCC 15579,16 µg/mL
same,MIC C. clostridioforme ATCC 25537,[4]; anaerobic,16 µg/mL
same,MIC B. thetaiotaomicron ATCC 29148,[5]; anaerobic,>32 µg/mL
same,MIC P. distasonis ATCC 8503,P. distasonis ATCC 8503; anaerobic,8 µg/mL
same,MIC P. nigrescens ATCC 33563,P. nigrescens ATCC 33563; anaerobic,4 µg/mL
O=C(Nc1ccccc1Cl)c1cc(I)cc(I)c1O [Compound 7c],MIC C. difficile 630,"[1]; Table 1, strain 630",8 µg/mL
same,MIC C. difficile 4118,[2]; [9],8 µg/mL
same,MIC against C. difficile,[3]; [10],8 µg/mL
O=C(Nc1ccc(I)cc1)c1cc(I)cc(I)c1O [Compound 7d],MIC C. difficile 630,"[1]; Table 1, strain 630",0.13 µg/mL
same,MIC C. difficile 4118,[2]; [9],0.25 µg/mL
"O=C(Nc1ccc(Oc2ccc(Cl)cc2)cc1)c1cc(Cl)cc(Cl)c1O [Compound 8, 3,5-Dichloro-N-(4-(4-chlorophenoxy)phenyl)-2-hydroxybenzamide]",MIC,"[1]; Table 1, strain 630",≤ 0.03 µg/mL
same,MIC,[2]; [11],0.06 µg/mL
same,MIC,S. aureus RN4220; [12],0.13 µg/mL
same,MIC,C. sporogenes ATCC 15579,4 µg/mL
same,MIC,[3]; [10],≤ 0.13 µg/mL
same,enhancement of potency relative to 5g and metronidazole,"[3]; MIC ratio, Table 1",4 fold
same,improvement of activity over vancomycin,"[3]; MIC ratio, Table 1",~32 fold
"Cc1ncc([N+](=O)[O-])n1CCO [Metronidazole, metronidazole, reference compound]",MIC,"[1]; Table 1, strain 630",0.25 µg/mL
same,MIC,[2]; [11],0.25 µg/mL
same,MBCstat,[6]; [13],>32 µg/mL
same,MIC,S. aureus RN4220; [12],> 32 µg/mL
same,MIC,C. sporogenes ATCC 15579,0.25 µg/mL
same,MIC,[5],1 µg/mL
same,antibacterial spectrum (in words),[7],mainly targeted anaerobic bacteria
"O=C(Nc1ccc([N+](=O)[O-])cc1Cl)c1cc(Cl)ccc1O [Niclosamide, niclosamide]",MIC,[2]; [11],4 µg/mL
same,cell viability HepG2 (MTS),liver carcinoma HepG2,significant decrease in viability
same,cell viability HEK 293T/17 (MTS),[8],significant decrease in viability
"CN[C@H](CC(C)C)C(=O)N[C@H]1C(=O)N[C@@H](CC(N)=O)C(=O)N[C@H]2C(=O)N[C@H]3C(=O)N[C@H](C(=O)N[C@H](C(=O)O)c4cc(O)cc(O)c4-c4cc3ccc4O)[C@H](O)c3ccc(c(Cl)c3)Oc3cc2cc(c3O[C@@H]2O[C@H](CO)[C@@H](O)[C@H](O)[C@H]2O[C@H]2C[C@](C)(N)[C@H](O)[C@H](C)O2)Oc2ccc(cc2Cl)[C@H]1O [Vancomycin, vancomycin, reference compound]",MIC,[1],1 µg/mL
same,MIC,[2],2 µg/mL
same,MIC,"[2]; 20-24 h, 37° C., read-out: MIC C. difficile 4118",2 µg/mL
same,MBC,"[6]; logarithmic-phase cells of strain 4118, read-out: MBClog",8 µg/mL
same,MBC,"[6]; stationary-phase cells of strain 4118, read-out: MBCstat",> 32 µg/mL
same,MBCstat,[6]; [13],>32 µg/mL
same,MIC,"B. subtilis ATCC 6051; Bacillus subtilis, ATCC6051, read-out: MIC B. subtilis ATCC 6051",0.13 µg/mL
same,MIC,"S. aureus RN4220; RN4220, read-out: MIC S. aureus RN4220",1 µg/mL
same,MIC,"S. epidermidis 1457; Staphylococcus epidermidis, 1457, read-out: MIC S. epidermidis 1457",2 µg/mL
same,MIC,"A. baumannii M2; Acinetobacter baumannii, M2, read-out: MIC A. baumannii M2",> 32 µg/mL
same,MIC,"P. aeruginosa PAO1; Pseudomonas aeruginosa, PAO1, read-out: MIC P. aeruginosa PAO1",> 32 µg/mL
same,MIC,C. sporogenes ATCC 15579,2 µg/mL
same,MIC,"[4]; Clostridium, ATCC25537, read-out: MIC C. clostridioforme ATCC 25537",0.5 µg/mL
same,MIC,[5],> 32 µg/mL
same,MIC,"P. distasonis ATCC 8503; Parabacteroides distasonis, ATCC8503, read-out: MIC P. distasonis ATCC 8503",> 32 µg/mL
same,MIC,"P. nigrescens ATCC 33563; Prevotella nigrescens, ATCC33563, read-out: MIC P. nigrescens ATCC 33563",> 32 µg/mL
same,MIC,[3],1 to 2 µg/mL
same,antibacterial spectrum (in words),[7],Gram-positive organisms
